# According to ChEMBL document CHEMBL6078728 (Bioorg Med Chem, 2025):
# Active and inactive are the calls of the source. The rule behind the calls is not given here.
# Assays:
# [1] = Inhibition of NLRP3 inflammasome activation in LPS/ATP stimulated human THP-1 cells assessed as inhibition of IL-1beta production pretreated with compound for 15 mins followed by LPS and ATP addition and measured after 2 hrs by ELISA; type: cell-based
# [2] = Intrinsic clearance in human liver microsomes at 0.2 uM in presence of NADPH incubated for 30 mins by LC-MS/MS analysis; type: ADME, Microsome; conditions: read-out: CLH
# [3] = Ratio of drug concentration in brain to plasma in male Sprague-Dawley rat at 10 mg/kg, po measured after 1 hr by LC-MS/MS analysis; type: ADME, organism-based; conditions: brain and plasma, read-out: BPR
# Mus musculus [4] = assay: Improvement of motor dysfunction in pathogenic alpha-synuclein induced male C57BL/6J mouse assessed as reduction in number of falls at 10 mg/kg, po administered once a day for 4 weeks and measured 1 hr after last administration by hanging wire test; type: functional, organism-based
# [5] = biological target: NACHT, LRR and PYD domains-containing protein 3 (Rattus norvegicus) (UniProt D4A523); assay: In vivo inhibition of NLRP3 activation in LPS-induced male wistar rat model assessed as inhibition of IL-1 beta production in CSF at 1 mg/kg, po measured after 30 mins by Western blotting analysis; type: functional, organism-based
# Sequence of NACHT, LRR and PYD domains-containing protein 3 (Rattus norvegicus) (D4A523 whole entry, the tested form may be a part): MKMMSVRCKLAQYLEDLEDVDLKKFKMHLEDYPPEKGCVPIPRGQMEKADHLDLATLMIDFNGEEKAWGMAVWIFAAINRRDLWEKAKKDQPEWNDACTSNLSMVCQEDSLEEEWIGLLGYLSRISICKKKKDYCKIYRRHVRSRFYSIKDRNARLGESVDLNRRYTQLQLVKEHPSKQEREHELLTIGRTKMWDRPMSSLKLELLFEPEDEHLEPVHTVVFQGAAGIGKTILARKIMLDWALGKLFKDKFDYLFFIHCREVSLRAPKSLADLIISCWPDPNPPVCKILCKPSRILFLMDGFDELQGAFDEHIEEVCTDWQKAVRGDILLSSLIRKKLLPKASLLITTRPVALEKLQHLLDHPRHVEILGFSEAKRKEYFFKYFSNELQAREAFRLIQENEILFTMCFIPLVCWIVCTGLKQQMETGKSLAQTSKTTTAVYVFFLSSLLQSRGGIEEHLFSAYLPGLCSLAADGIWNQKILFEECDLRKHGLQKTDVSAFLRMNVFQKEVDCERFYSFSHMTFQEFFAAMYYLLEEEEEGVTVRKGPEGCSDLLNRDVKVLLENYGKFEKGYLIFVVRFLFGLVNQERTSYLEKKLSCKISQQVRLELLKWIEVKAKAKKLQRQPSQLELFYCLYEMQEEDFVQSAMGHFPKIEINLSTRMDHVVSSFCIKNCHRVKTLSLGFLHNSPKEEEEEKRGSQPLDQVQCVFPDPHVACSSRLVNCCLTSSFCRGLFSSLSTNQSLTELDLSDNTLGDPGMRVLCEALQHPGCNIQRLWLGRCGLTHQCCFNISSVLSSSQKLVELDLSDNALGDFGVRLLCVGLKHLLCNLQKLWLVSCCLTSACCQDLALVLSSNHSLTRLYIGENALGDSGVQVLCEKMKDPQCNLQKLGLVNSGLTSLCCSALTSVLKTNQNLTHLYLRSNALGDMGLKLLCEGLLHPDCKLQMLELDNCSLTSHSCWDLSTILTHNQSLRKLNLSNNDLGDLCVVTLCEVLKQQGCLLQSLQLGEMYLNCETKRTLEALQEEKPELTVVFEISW
# Mus musculus [6] = assay: Improvement of motor dysfunction in pathogenic alpha-synuclein induced male C57BL/6J mouse assessed as reduction in number of falls at 1 mg/kg, po administered once a day for 4 weeks and measured 1 hr after last administration by hanging wire test; type: functional, organism-based
# [7] = Inhibition of NLRP3 inflammasome activation in alpha-synuclein pre-formed fibril stimulated human THP-1 cells assessed as inhibition of IL-1beta production preincubated with compound for 15 mins followed by alpha-synuclein pre-formed fibril addition and measured after 24 hrs by ELISA; type: cell-based
# THP-1 = assay: Antiinflammatory activity against LPS/ATP stimulated human THP-1 cells assessed as ASC speck formation by DAPI staining based cell analyzer; type: functional
# [8] = biological target: NACHT, LRR and PYD domains-containing protein 3 (Rattus norvegicus) (UniProt D4A523); assay: In vivo inhibition of NLRP3 activation in LPS-induced male wistar rat model assessed as inhibition of IL-1 beta production in CSF at 0.3 mg/kg, po measured after 30 mins by Western blotting analysis; type: functional, organism-based
# [9] = Intrinsic clearance in rat liver microsomes at 0.2 uM in presence of NADPH incubated for 30 mins by LC-MS/MS analysis; type: ADME, Microsome; conditions: read-out: CLH
# [10] = Inhibition of NLRP3 inflammasome activation in LPS stimulated human THP-1 cells assessed as inhibition of TNF-alpha production pretreated with compound for 15 mins followed by LPS and ATP addition and measured after 2 hrs by ELISA; type: cell-based
# [11] = biological target: NACHT, LRR and PYD domains-containing protein 3 (Rattus norvegicus) (UniProt D4A523); assay: In vivo inhibition of NLRP3 activation in LPS-induced male wistar rat model assessed as inhibition of IL-1 beta production in CSF at 3 mg/kg, po measured after 30 mins by Western blotting analysis; type: functional, organism-based
# [12] = Drug concentration in male Sprague-Dawley rat plasma at 10 mg/kg, ip measured after 1 hr by LC-MS/MS analysis; type: ADME, organism-based
# [13] = Drug concentration in male Sprague-Dawley rat brain at 10 mg/kg, ip measured after 1 hr by LC-MS/MS analysis; type: ADME, organism-based; conditions: read-out: Ct
# [14] = Ratio of drug concentration in brain to plasma in male Sprague-Dawley rat at 10 mg/kg, ip measured after 1 hr by LC-MS/MS analysis; type: ADME, organism-based; conditions: brain and plasma, read-out: BPR
# [15] = biological target: NACHT, LRR and PYD domains-containing protein 3 (Rattus norvegicus) (UniProt D4A523); conditions: wistar, dose <= 30.0 mg/kg, route po, time 30.0 min
# [16] = Inhibition of NLRP3 inflammasome activation in LPS primed mouse BMDM cells assessed as inhibition of IL-1beta production preincubated with compound for 1 hr followed by nigericin stimulation and measured after 1 hr by ELISA method; type: cell-based
# [17] = Drug concentration in male Sprague-Dawley rat plasma at 5 mg/kg, ip measured after 1 hr by LC-MS/MS analysis; type: ADME, organism-based
# [18] = Ratio of drug concentration in brain to plasma in male Sprague-Dawley rat at 5 mg/kg, ip measured after 1 hr by LC-MS/MS analysis; type: ADME, organism-based; conditions: brain and plasma, read-out: BPR
# [19] = Drug concentration in male Sprague-Dawley rat brain at 5 mg/kg, ip measured after 1 hr by LC-MS/MS analysis; type: ADME, organism-based; conditions: read-out: Ct
IC50 [1] [nM],SMILES,also measured
17,Cc1cc(NC[C@@H](C)O)nnc1-c1ccc(C(F)(F)F)cc1O,–
150,C[C@@H](O)CNc1ccc(-c2ccc(C(F)(F)F)cc2C(F)(F)F)nn1,–
1200,CC(O)CCNc1nnc(-c2ccc(C(F)(F)F)cc2)c2ccccc12 (stereo not given),–
610,OCCNc1nnc(-c2ccc(C(F)(F)F)cc2)c2ccccc12,–
14,Cc1c(NC[C@@H](C)O)nnc(-c2ccc(C(F)(F)F)cc2O)c1C,–
5200,OCCCNc1nnc(-c2ccccc2C(F)(F)F)c2ccccc12,–
230,C[C@H](O)CNc1nnc(-c2ccc(C(F)(F)F)cc2)c2ccccc12,–
980,OCCCNc1nnc(-c2ccc(C(F)(F)F)c(F)c2)c2ccccc12,–
57,C[C@@H](O)CNc1nnc(-c2ccc(C(F)(F)F)cc2C(F)(F)F)c2ccccc12,–
17000,OCCCNc1nnc(-c2cccc(C(F)(F)F)c2)c2ccccc12,–
–,Cc1c(N[C@@H]2CCCC[C@H]2O)nnc(-c2ccc(C(F)(F)F)cc2O)c1C,microsomal CLint at 0.2 µM [2]: < 20 µL/min/mg; Kp at 1 h [3]: 0.94; Activity (Mus musculus [4]): Active; inhibition [5]: Active; Activity (Mus musculus [6]): Active; IC50 [7]: 6.3 nM; IC50 (THP-1): 5.7 nM; inhibition [8]: Active; microsomal CLint at 0.2 µM [9]: < 20 µL/min/mg; IC50 [10]: > 10000 nM; inhibition [11]: Active
490,Cc1cc(C(F)(F)F)ccc1-c1nnc(NCCCO)c2ccccc12,–
1700,COCCCNc1nnc(-c2ccc(C(F)(F)F)cc2)c2ccccc12,–
28,Cc1c(N[C@@H]2CCC[C@H]2O)nnc(-c2ccc(C(F)(F)F)cc2O)c1C,–
140,C[C@@H](O)CNc1nnc(-c2ccc(C(F)(F)F)cc2)c2ccccc12,–
510,OCCCNc1nnc(-c2ccc(C(F)(F)F)cc2F)c2ccccc12,–

IC50 [1] [nM],SMILES,also measured
230,CC(CO)CNc1nnc(-c2ccc(C(F)(F)F)cc2)c2ccccc12 (stereo not given),–
350,OCCCNc1nnc(-c2ccc(C(F)(F)F)cc2Cl)c2ccccc12,–
27,Cc1c(N[C@H]2CCC[C@H]2O)nnc(-c2ccc(C(F)(F)F)cc2O)c1C,–
590,Cc1c(NC[C@@H](C)O)nnc(-c2ccc(C(F)(F)F)cc2C(F)F)c1C,–
1000,CC(C)(CO)CNc1nnc(-c2ccc(C(F)(F)F)cc2)c2ccccc12,–
3500,CC(CCO)Nc1nnc(-c2ccc(C(F)(F)F)cc2)c2ccccc12 (stereo not given),–
370,OCCCNc1nnc(-c2ccc(C(F)(F)F)cc2)c2ccccc12,–
110,OCCCNc1nnc(-c2ccc(C(F)(F)F)cc2C(F)(F)F)c2ccccc12,–
650,Cc1c(N[C@H]2CCC[C@@H]2O)nnc(-c2ccc(C(F)(F)F)cc2O)c1C,–
160,Cc1cc(-c2ccc(C(F)(F)F)cc2O)nnc1NC[C@@H](C)O,–
–,CC(C)(O)c1coc(S(=O)(=O)NC(=O)Nc2c3c(cc4c2CCC4)CCC3)c1,concentration at 1 h [12]: 2320 ng/mL; concentration at 1 h [13]: 23.1 ng/g; Kp at 1 h [14]: 0.01; inhibition [15]: inactive; IC50 [16]: 7.5 nM
210,Cc1c(NC[C@@H](C)O)nnc(-c2ccc(C(F)(F)F)cc2C(F)(F)F)c1C,–
90,Cc1cc(-c2ccc(C(F)(F)F)cc2C(F)(F)F)nnc1NC[C@@H](C)O,–
200,Cc1cc(NC[C@@H](C)O)nnc1-c1ccc(C(F)(F)F)cc1C(F)(F)F,–
2000,Cc1ccc(-c2nnc(NCCCO)c3ccccc23)cc1,concentration at 1 h [17]: 360 ng/mL; IC50 (THP-1): 3100 nM; Kp at 1 h [18]: 0.33; concentration at 1 h [19]: 117 ng/g; IC50 [10]: > 10000 nM
